Literature values, collected in patent publication US20100150991A1, “Combination Wound Therapy” (priority 2008, published 2010).

Legend:
[1] = topical application of gaseous nitric oxide
[2] = system: neutrophil adhesion, platelets, and pro-inflammatory cutokines in the circulating blood; details: doses of less than 80 ppm; by reducing neutrophil adhesion, platelets and pro-inflammatory cytokines in circulating blood
acute and chronic wounds = details: topical CO2, acute and chronic wounds; Wollina et al 2004
[3] = CO2 insufflation compared with air insufflation; van der Linden and Persson 2003

| SMILES | half life of NO in contact with tissues [1] | anti-inflammatory effect [2] | clinical evidence in wounds (acute and chronic wounds) | rates of infection [3] |
| --- | --- | --- | --- | --- |
| [N]=O [NO, nitric oxide] | 6 min | anti-inflammatory effect | – | – |
| O=C=O [CO2, carbon dioxide] | – | – | increased granulation tissue and reduction of discharge and malodor | lower rates of infection than air insufflation |
